The structures appear in SMILES notation.

This is an account of results in ChEMBL document CHEMBL4425179, “Colorectal anticancer activities of polymethoxylated 3-naphthyl-5-phenylpyrazoline-carbothioamides” (Bioorg Med Chem Lett, 2016).

For the assay, the system named is HCT-116. The assay can be described thus: Growth inhibition of human HCT116 cells after 7 days by clonogenic survival assay. In kind it is functional. The note with it: HCT-116, 168 h.

As for `COc1ccc(NC(=S)N2N=C(c3ccc4ccccc4c3O)CC2c2ccccc2OC)cc1` (configuration not stated), the GI50 reads like this: (read-out: GI50) 369 nM; (read-out: pGI50 (converted)) 372 nM.
Regarding `COc1ccc(C2CC(c3ccc4ccccc4c3O)=NN2C(=S)Nc2ccccc2)cc1` (configuration not stated), the GI50 (read-out: GI50) came to 239 nM and the GI50 (read-out: pGI50 (converted)) is 240 nM.
`COc1ccc(C2CC(c3ccc4ccccc4c3O)=NN2C(=S)Nc2ccc(OC)cc2OC)cc1` (configuration not stated): the GI50 is, setting by setting: (read-out: GI50) 2470 nM; (read-out: pGI50 (converted)) 2450 nM.
For `COc1cccc(NC(=S)N2N=C(c3ccc4ccccc4c3O)CC2c2cccc(OC)c2)c1` (configuration not stated), the GI50 (read-out: GI50) worked out at 272 nM and the GI50 (read-out: pGI50 (converted)) was 269 nM.
As to `COc1ccc(NC(=S)N2N=C(c3ccc4ccccc4c3O)CC2c2ccccc2OC)c(OC)c1` (configuration not stated), the GI50 is 4200 nM (read-out: GI50) and 4170 nM (read-out: pGI50 (converted)).
On to `COc1ccccc1NC(=S)N1N=C(c2c(O)ccc3ccccc23)CC1c1ccccc1OC` (configuration not stated), for which the GI50 reads like this: (read-out: GI50) 3970 nM; (read-out: pGI50 (converted)) 3980 nM.
Taken in the same sequence, the figures for `COc1ccccc1C1CC(c2ccc3ccccc3c2O)=NN1C(=S)Nc1ccccc1` (configuration not stated) were 742 nM and 741 nM.
On to `COc1cccc(C2CC(c3ccc4ccccc4c3O)=NN2C(=S)Nc2ccccc2OC)c1` (configuration not stated), for which the GI50 was 3920 nM (read-out: GI50) and 3890 nM (read-out: pGI50 (converted)).
The matching figures for `COc1ccc(NC(=S)N2N=C(c3c(O)ccc4ccccc34)CC2c2ccccc2OC)cc1` (configuration not stated): 742 nM and 741 nM.
`COc1cccc(C2CC(c3ccc4ccccc4c3O)=NN2C(=S)Nc2ccccc2)c1` (configuration not stated): the GI50 (read-out: GI50) came out at 321 nM and the GI50 (read-out: pGI50 (converted)) was 324 nM.
For `COc1cccc(NC(=S)N2N=C(c3ccc4ccccc4c3O)CC2c2ccccc2OC)c1` (configuration not stated), the GI50 (read-out: GI50) came out at 445 nM and the GI50 (read-out: pGI50 (converted)) is 447 nM.
